The assay concerns MV-4-11 cells. As to the kind of experiment: Gene expression microarray analysis (Affymetrix PrimeView) and GSEA. The format is cell-based, human. Also noted: RFU PODN (11730768_x_at) / Fold change /veh PODN (11730768_x_at) / RFU LINC00158 (11744669_a_at) / Fold change /veh LINC00158 (11744669_a_at) / RFU DUSP10 (11751237_a_at) / Fold change /veh DUSP10 (11751237_a_at) / RFU ID3 (11757404_x_at) / Fold change /veh ID3 (11757404_x_at) / RFU PLEKHG5 (11737974_s_at) / Fold change /veh PLEKHG5 (11737974_s_at) / RFU LRRC4B (11730491_at) / Fold change /veh LRRC4B (11730491_at) / RFU GIMAP4 (11747438_a_at) / Fold change /veh GIMAP4 (11747438_a_at) / RFU KRT8 (11758183_x_at) / Fold change /veh KRT8 (11758183_x_at) / RFU CNN1 (11734310_a_at) / Fold change /veh CNN1 (11734310_a_at) / RFU VPS37D (11726825_at) / Fold change /veh VPS37D (11726825_at) / RFU C10orf10 (11716522_x_at) / Fold change /veh C10orf10 (11716522_x_at) / RFU KIR2DL2 /// KIR2DL4 /// KIR2DL5A /// KIR2DL5B /// KIR2DS1 /// KIR2DS2 /// KIR2DS3 /// KIR2DS4 /// KIR3DL3 /// KIR3DL3 /// KIR3DS1 (11738374_at) / Fold change /veh KIR2DL2 /// KIR2DL4 /// KIR2DL5A /// KIR2DL5B /// KIR2DS1 /// KIR2DS2 /// KIR2DS3 /// KIR2DS4 /// KIR3DL3 /// KIR3DL3 /// KIR3DS1 (11738374_at) / RFU C1QL1 (11718748_at) / Fold change /veh C1QL1 (11718748_at) / RFU TMPRSS4 (11747572_a_at) / Fold change /veh TMPRSS4 (11747572_a_at) / RFU HAMP (11756126_x_at) / Fold change /veh HAMP (11756126_x_at) / RFU RNFT2 (11725882_a_at) / Fold change /veh RNFT2 (11725882_a_at) / RFU NR4A2 (11747474_a_at) / Fold change /veh NR4A2 (11747474_a_at) / RFU ABCC12 (11746883_a_at) / Fold change /veh ABCC12 (11746883_a_at) / RFU TMEM136 (11760407_x_at) / Fold change /veh TMEM136 (11760407_x_at) / RFU CLDN22 /// WWC2 (11732394_at) / Fold change /veh CLDN22 /// WWC2 (11732394_at) / RFU HLA-DPB1 (11760878_x_at) / Fold change /veh HLA-DPB1 (11760878_x_at) / RFU SPINT1 (11716480_a_at) / Fold change /veh SPINT1 (11716480_a_at) / RFU GAP43 (11754022_s_at) / Fold change /veh GAP43 (11754022_s_at) / RFU A4GNT (11735810_at) / Fold change /veh A4GNT (11735810_at) / RFU PRB3 (11715151_x_at) / Fold change /veh PRB3 (11715151_x_at) / RFU TUBB4B (11761932_at) / Fold change /veh TUBB4B (11761932_at) / RFU CAPN14 (11732068_a_at) / Fold change /veh CAPN14 (11732068_a_at) / RFU TMCC2 (11721928_a_at) / Fold change /veh TMCC2 (11721928_a_at) / RFU IRGQ (11745062_a_at) / Fold change /veh IRGQ (11745062_a_at) / RFU FAM174B (11720279_a_at) / Fold change /veh FAM174B (11720279_a_at) / RFU TMPRSS4 (11748680_a_at) / Fold change /veh TMPRSS4 (11748680_a_at) / RFU FAM212B (11763350_a_at) / Fold change /veh FAM212B (11763350_a_at) / RFU PLEKHG5 (11743358_a_at) / Fold change /veh PLEKHG5 (11743358_a_at) / RFU ZSCAN30 (11745921_a_at) / Fold change /veh ZSCAN30 (11745921_a_at) / RFU CMKLR1 (11741424_a_at) / Fold change /veh CMKLR1 (11741424_a_at) / RFU LOC101060620 /// MAPK8IP1 (11723275_at) / Fold change /veh LOC101060620 /// MAPK8IP1 (11723275_at) / RFU SPTSSB (11747773_x_at) / Fold change /veh SPTSSB (11747773_x_at) / RFU PRSS12 (11739890_at) / Fold change /veh PRSS12 (11739890_at) / RFU BIN1 (11741810_x_at) / Fold change /veh BIN1 (11741810_x_at) / RFU WNT11 (11732464_a_at) / Fold change /veh WNT11 (11732464_a_at) / RFU C10orf10 (11716521_a_at) / Fold change /veh C10orf10 (11716521_a_at) / RFU C5orf56 (11738089_at) / Fold change /veh C5orf56 (11738089_at) / RFU CYB561 (11721691_x_at) / Fold change /veh CYB561 (11721691_x_at) / RFU ANKRD19P (11752326_a_at) / Fold change /veh ANKRD19P (11752326_a_at) / RFU OR2T12 /// OR2T33 /// OR2T8 (11738714_s_at) / Fold change /veh OR2T12 /// OR2T33 /// OR2T8 (11738714_s_at) / RFU VCAN (11748164_a_at) / Fold change /veh VCAN (11748164_a_at) / RFU JSRP1 (11732532_at) / Fold change /veh JSRP1 (11732532_at) / RFU KRTAP10-11 (11738290_x_at) / Fold change /veh KRTAP10-11 (11738290_x_at) / RFU MYO3A (11730013_a_at) / Fold change /veh MYO3A (11730013_a_at) / RFU EBF3 (11725865_a_at) / Fold change /veh EBF3 (11725865_a_at) / RFU CAMK2N1 (11719241_x_at) / Fold change /veh CAMK2N1 (11719241_x_at) / RFU C5orf56 (11738088_a_at) / Fold change /veh C5orf56 (11738088_a_at) / RFU OLFML3 (11715873_a_at) / Fold change /veh OLFML3 (11715873_a_at) / RFU LOC100653217 /// NTM (11731650_a_at) / Fold change /veh LOC100653217 /// NTM (11731650_a_at) / RFU MAPK11 (11762145_a_at) / Fold change /veh MAPK11 (11762145_a_at) / RFU FIZ1 (11724087_x_at) / Fold change /veh FIZ1 (11724087_x_at) / RFU OASL (11726364_x_at) / Fold change /veh OASL (11726364_x_at) / RFU SOX15 (11748057_x_at) / Fold change /veh SOX15 (11748057_x_at) / RFU CD79A (11719716_a_at) / Fold change /veh CD79A (11719716_a_at) / RFU HIST1H1D (11736915_at) / Fold change /veh HIST1H1D (11736915_at) / RFU CASKIN2 (11723855_a_at) / Fold change /veh CASKIN2 (11723855_a_at) / RFU LOC730098 (11760151_x_at) / Fold change /veh LOC730098 (11760151_x_at) / RFU OR4N2 (11742367_at) / Fold change /veh OR4N2 (11742367_at) / RFU PRRT2 (11749266_a_at) / Fold change /veh PRRT2 (11749266_a_at) / RFU SNX32 (11753110_a_at) / Fold change /veh SNX32 (11753110_a_at) / RFU CDHR5 (11726645_a_at) / Fold change /veh CDHR5 (11726645_a_at) / RFU RCAN1 (11760418_a_at) / Fold change /veh RCAN1 (11760418_a_at) / RFU FAM167A (11723789_a_at) / Fold change /veh FAM167A (11723789_a_at) / RFU FAM26E (11764081_at) / Fold change /veh FAM26E (11764081_at) / RFU ISYNA1 (11749810_s_at) / Fold change /veh ISYNA1 (11749810_s_at) / RFU ACY1 (11761880_at) / Fold change /veh ACY1 (11761880_at) / RFU 11764098_at / Fold change /veh 11764098_at / RFU SAMD14 (11745864_x_at) / Fold change /veh SAMD14 (11745864_x_at) / RFU NPB (11741838_a_at) / Fold change /veh NPB (11741838_a_at) / RFU TMPRSS6 (11731388_a_at) / Fold change /veh TMPRSS6 (11731388_a_at) / RFU KRTAP10-2 (11738614_at) / Fold change /veh KRTAP10-2 (11738614_at) / RFU ARHGAP8 /// PRR5-ARHGAP8 (11727945_x_at) / Fold change /veh ARHGAP8 /// PRR5-ARHGAP8 (11727945_x_at) / RFU KRTAP5-7 /// NADSYN1 (11734609_at) / Fold change /veh KRTAP5-7 /// NADSYN1 (11734609_at) / RFU RASL12 (11751679_a_at) / Fold change /veh RASL12 (11751679_a_at) / RFU CDKN2B (11736163_a_at) / Fold change /veh CDKN2B (11736163_a_at) / RFU PRF1 (11729649_at) / Fold change /veh PRF1 (11729649_at) / RFU, ZNF638 /// ZNF638-IT1 / Fold change vs veh, ZNF638 /// ZNF638-IT1 / RFU, PANK3 / Fold change vs veh, PANK3 / RFU, SH3YL1 / Fold change vs veh, SH3YL1 / RFU, ZEB2 / Fold change vs veh, ZEB2 / RFU, NRIP1 / Fold change vs veh, NRIP1 / RFU, PTTG1IP / Fold change vs veh, PTTG1IP / RFU, CAPN2 / Fold change vs veh, CAPN2 / RFU, MED14 / Fold change vs veh, MED14 / RFU, SNORA58 / Fold change vs veh, SNORA58 / RFU, C1orf63 / Fold change vs veh, C1orf63 / RFU, LRRFIP1 / Fold change vs veh, LRRFIP1 / RFU, NDUFAF7 / Fold change vs veh, NDUFAF7 / RFU, SLC12A2 / Fold change vs veh, SLC12A2 / RFU, IBTK / Fold change vs veh, IBTK / RFU, ESF1 / Fold change vs veh, ESF1 / Fold change vs veh, TMEM50B / RFU, TAOK1 / Fold change vs veh, TAOK1 / RFU, ACBD3 / Fold change vs veh, ACBD3 / RFU, TMA16 / Fold change vs veh, TMA16 / RFU, RWDD3 / Fold change vs veh, RWDD3 / RFU, BCAT1 / Fold change vs veh, BCAT1 / RFU, EDEM3 / Fold change vs veh, EDEM3 / RFU, TMEM33 / Fold change vs veh, TMEM33 / RFU, WDR75 / Fold change vs veh, WDR75 / RFU, AHCTF1 / Fold change vs veh, AHCTF1 / RFU, TFRC / Fold change vs veh, TFRC / RFU, ZDHHC17 / Fold change vs veh, ZDHHC17 / RFU, NOM1 / Fold change vs veh, NOM1 / RFU, ARL8B / Fold change vs veh, ARL8B / RFU, ZBTB11 / Fold change vs veh, ZBTB11 / RFU, TAMM41 / Fold change vs veh, TAMM41 / RFU, KIAA1704 /// LOC100996395 / Fold change vs veh, KIAA1704 /// LOC100996395 / RFU, ING1 / Fold change vs veh, ING1 / RFU, TRMT61B / Fold change vs veh, TRMT61B / RFU, FUBP3 / Fold change vs veh, FUBP3 / RFU, TP53 / Fold change vs veh, TP53 / RFU, TNKS2 / Fold change vs veh, TNKS2 / RFU, ZFP14 / Fold change vs veh, ZFP14 / RFU, ACTR2 / Fold change vs veh, ACTR2 / RFU, PPP3R1 / Fold change vs veh, PPP3R1 / RFU, PIK3R1 / Fold change vs veh, PIK3R1 / RFU, HNRNPA1 / Fold change vs veh, HNRNPA1 / RFU, RNF170 / Fold change vs veh, RNF170 / RFU, ZNF28 / Fold change vs veh, ZNF28 / RFU, RNGTT / Fold change vs veh, RNGTT / RFU, OGT / Fold change vs veh, OGT / RFU, BRD1 / Fold change vs veh, BRD1 / RFU, MARS / Fold change vs veh, MARS / RFU, ZNF655 / Fold change vs veh, ZNF655 / RFU, FAHD1 / Fold change vs veh, FAHD1 / RFU, BDP1 / Fold change vs veh, BDP1 / RFU, LRRCC1 / Fold change vs veh, LRRCC1 / RFU, ARID1A / Fold change vs veh, ARID1A / RFU, ZNF146 / Fold change vs veh, ZNF146 / RFU, ZNF330 / Fold change vs veh, ZNF330 / RFU, GPN3 / Fold change vs veh, GPN3 / RFU, C9orf123 / Fold change vs veh, C9orf123 / RFU, N4BP2L2 / Fold change vs veh, N4BP2L2 / RFU, ARFIP1 / Fold change vs veh, ARFIP1 / RFU, FAM179B / Fold change vs veh, FAM179B / RFU, BCL10 / Fold change vs veh, BCL10 / RFU, UHRF1BP1L / Fold change vs veh, UHRF1BP1L / RFU, BET1 / Fold change vs veh, BET1 / RFU, CNOT2 / Fold change vs veh, CNOT2 / RFU, ZNF268 / Fold change vs veh, ZNF268 / Fold change vs veh, ZNF507 / RFU, DGCR2 / Fold change vs veh, DGCR2 / RFU, WDSUB1 / Fold change vs veh, WDSUB1 / Fold change vs veh, HSP90B1 /// MIR3652 / RFU, ADSS / Fold change vs veh, ADSS / RFU, GK / Fold change vs veh, GK / RFU, ZNF148 / Fold change vs veh, ZNF148 / RFU, TAF9 / Fold change vs veh, TAF9 / RFU, SLC1A5 / Fold change vs veh, SLC1A5 / RFU, SLMO2 / Fold change vs veh, SLMO2 / RFU, ABCC4 / Fold change vs veh, ABCC4 / RFU, LOC101060439 /// RAP1B / Fold change vs veh, LOC101060439 /// RAP1B / RFU, RFX7 / Fold change vs veh, RFX7 / RFU, GTPBP10 / Fold change vs veh, GTPBP10 / RFU, CNEP1R1 / Fold change vs veh, CNEP1R1 / RFU, BIVM-ERCC5 /// ERCC5 / Fold change vs veh, BIVM-ERCC5 /// ERCC5 / RFU, ILF3 / Fold change vs veh, ILF3 / RFU 11762660_at / Fold change /veh 11762660_at / RFU VCAN (11757783_s_at) / Fold change /veh VCAN (11757783_s_at) / RFU DDX43 (11728927_at) / Fold change /veh DDX43 (11728927_at) / RFU KRT8 (11758188_x_at) / Fold change /veh KRT8 (11758188_x_at) / RFU NKD1 (11759106_at) / Fold change /veh NKD1 (11759106_at) / RFU SRD5A1 (11742802_a_at) / Fold change /veh SRD5A1 (11742802_a_at) / RFU TPSAB1 /// TPSB2 (11721975_s_at) / Fold change /veh TPSAB1 /// TPSB2 (11721975_s_at) / RFU GSTM3 (11746129_a_at) / Fold change /veh GSTM3 (11746129_a_at) / RFU IL23R (11737362_x_at) / Fold change /veh IL23R (11737362_x_at) / RFU TMEM51 (11727254_a_at) / Fold change /veh TMEM51 (11727254_a_at) / RFU PIWIL2 (11732686_x_at) / Fold change /veh PIWIL2 (11732686_x_at) / RFU ORM1 (11744905_x_at) / Fold change /veh ORM1 (11744905_x_at) / RFU CCDC152 (11743942_at) / Fold change /veh CCDC152 (11743942_at) / RFU ECM1 (11717891_a_at) / Fold change /veh ECM1 (11717891_a_at) / RFU IL23R (11748794_a_at) / Fold change /veh IL23R (11748794_a_at) / RFU TNFAIP8L3 (11732012_x_at) / Fold change /veh TNFAIP8L3 (11732012_x_at) / RFU MBOAT4 (11741988_at) / Fold change /veh MBOAT4 (11741988_at) / RFU 11764193_at / Fold change /veh 11764193_at / RFU TMEM53 (11763286_at) / Fold change /veh TMEM53 (11763286_at) / RFU MAGEB2 (11727129_at) / Fold change /veh MAGEB2 (11727129_at) / RFU TMEM200A (11744735_a_at) / Fold change /veh TMEM200A (11744735_a_at) / RFU CCDC152 (11751479_a_at) / Fold change /veh CCDC152 (11751479_a_at) / RFU FAM211A (11726209_a_at) / Fold change /veh FAM211A (11726209_a_at) / RFU RGS16 (11746705_a_at) / Fold change /veh RGS16 (11746705_a_at) / RFU VCAN (11755009_s_at) / Fold change /veh VCAN (11755009_s_at) / RFU RHOB (11743442_s_at) / Fold change /veh RHOB (11743442_s_at) / RFU RGS16 (11720943_a_at) / Fold change /veh RGS16 (11720943_a_at) / RFU RGS16 (11720944_at) / Fold change /veh RGS16 (11720944_at) / RFU, VPS4B / Fold change vs veh, VPS4B / RFU, CREB1 / Fold change vs veh, CREB1 / RFU, DNAJC13 / Fold change vs veh, DNAJC13 / RFU, GNAQ / Fold change vs veh, GNAQ / RFU, CDK5R1 / Fold change vs veh, CDK5R1 / RFU, ZRANB3 / Fold change vs veh, ZRANB3 / RFU, CUL4A / Fold change vs veh, CUL4A / RFU, CCNY / Fold change vs veh, CCNY / RFU, UFL1 / Fold change vs veh, UFL1 / RFU, COG3 / Fold change vs veh, COG3 / RFU, DIAPH2 / Fold change vs veh, DIAPH2 / RFU, SKA2 / Fold change vs veh, SKA2 / RFU, AFF3 / Fold change vs veh, AFF3 / RFU, LMF1 / Fold change vs veh, LMF1 / RFU, IPO11 / Fold change vs veh, IPO11 / RFU, DFFB / Fold change vs veh, DFFB / RFU, FOXP1 / Fold change vs veh, FOXP1 / RFU, CARD8 / Fold change vs veh, CARD8 / RFU, STRN3 / Fold change vs veh, STRN3 / RFU, ADK / Fold change vs veh, ADK / RFU, RASSF2 / Fold change vs veh, RASSF2 / RFU, WIPF1 / Fold change vs veh, WIPF1 / RFU, LARP1B / Fold change vs veh, LARP1B / RFU, RASA1 / Fold change vs veh, RASA1 / RFU, RB1 / Fold change vs veh, RB1 / RFU, PPFIA1 / Fold change vs veh, PPFIA1 / RFU, MAT2A / Fold change vs veh, MAT2A / RFU, CCT5 / Fold change vs veh, CCT5 / RFU, WDR92 / Fold change vs veh, WDR92 / RFU, CUX1 / Fold change vs veh, CUX1 / RFU, TTC7A / Fold change vs veh, TTC7A / RFU, TMEM135 / Fold change vs veh, TMEM135 / RFU, DEPTOR / Fold change vs veh, DEPTOR / RFU, CPM / Fold change vs veh, CPM / RFU, DNAJB6 / Fold change vs veh, DNAJB6 / RFU, CACNA2D3 / Fold change vs veh, CACNA2D3 / RFU, DTX4 / Fold change vs veh, DTX4 / RFU, TFCP2 / Fold change vs veh, TFCP2 / RFU, GMCL1 /// GMCL1P1 / Fold change vs veh, GMCL1 /// GMCL1P1 / RFU, AEBP2 / Fold change vs veh, AEBP2 / RFU, SNHG1 /// SNORD22 /// SNORD25 /// SNORD26 /// SNORD27 /// SNORD28 /// SNORD29 /// SNORD31 / Fold change vs veh, SNHG1 /// SNORD22 /// SNORD25 /// SNORD26 /// SNORD27 /// SNORD28 /// SNORD29 /// SNORD31 / Fold change (Aza/veh), C12orf56 (ProbeSet 11735607_a_at) / Fold change (ACY-1035/veh), C12orf56 (ProbeSet 11735607_a_at) / Fold change (Aza/veh), FGFR1OP (ProbeSet 11751329_s_at) / Fold change (ACY-1035/veh), FGFR1OP (ProbeSet 11751329_s_at) / Fold change (Aza/veh), VPS36 (ProbeSet 11739960_a_at) / Fold change (ACY-1035/veh), VPS36 (ProbeSet 11739960_a_at) / RFU SYPL1 (11715823_x_at) / Fold change /veh SYPL1 (11715823_x_at) / RFU IGFBP7 (11715501_s_at) / Fold change /veh IGFBP7 (11715501_s_at) / RFU REEP3 (11722064_at) / Fold change /veh REEP3 (11722064_at) / RFU IGLL1 (11728026_x_at) / Fold change /veh IGLL1 (11728026_x_at): dose or concentration left out as unconfirmed. The following applies: ProbeSet 11725885_a_at; LIST B.

These results are taken from paper PMC5218480 (PLoS ONE, 2017).

In the case of `Nc1ccc(-c2cccs2)cc1NC(=O)c1ccc2c(c1)cc(C1CC1)n2CCN1CCOCC1` [ACY-1035], the “Fold change vs veh, CNEP1R1” value came to 1.08.
